# How the values were obtained:
# Parameters in all cases: scale not given: the % may be the effect or the level left
# [1] = molecular target: Mitogen-activated protein kinase kinase kinase 20 (Homo sapiens) (UniProt Q9NYL2); assay: Inhibition of human ZAK/MLTK assessed as enzyme activity at 1 uM using myelin basic protein as substrate preincubated for 20 mins followed by [gamma-33P]-ATP addition and measured after 120 mins by radiometric Hot-SpotSM Kinase assay relative to control
# [2] = molecular target: Ribosomal protein S6 kinase alpha-4 (Homo sapiens) (UniProt O75676); assay: Inhibition of human MSK2 assessed as enzyme activity at 1 uM using GRPRTSSFAEG as substrate preincubated for 20 mins followed by [gamma-33P]-ATP addition and measured after 120 mins by radiometric Hot-SpotSM Kinase assay relative to control
# Chain of Ribosomal protein S6 kinase alpha-4 (Homo sapiens) (O75676 whole entry, looked up): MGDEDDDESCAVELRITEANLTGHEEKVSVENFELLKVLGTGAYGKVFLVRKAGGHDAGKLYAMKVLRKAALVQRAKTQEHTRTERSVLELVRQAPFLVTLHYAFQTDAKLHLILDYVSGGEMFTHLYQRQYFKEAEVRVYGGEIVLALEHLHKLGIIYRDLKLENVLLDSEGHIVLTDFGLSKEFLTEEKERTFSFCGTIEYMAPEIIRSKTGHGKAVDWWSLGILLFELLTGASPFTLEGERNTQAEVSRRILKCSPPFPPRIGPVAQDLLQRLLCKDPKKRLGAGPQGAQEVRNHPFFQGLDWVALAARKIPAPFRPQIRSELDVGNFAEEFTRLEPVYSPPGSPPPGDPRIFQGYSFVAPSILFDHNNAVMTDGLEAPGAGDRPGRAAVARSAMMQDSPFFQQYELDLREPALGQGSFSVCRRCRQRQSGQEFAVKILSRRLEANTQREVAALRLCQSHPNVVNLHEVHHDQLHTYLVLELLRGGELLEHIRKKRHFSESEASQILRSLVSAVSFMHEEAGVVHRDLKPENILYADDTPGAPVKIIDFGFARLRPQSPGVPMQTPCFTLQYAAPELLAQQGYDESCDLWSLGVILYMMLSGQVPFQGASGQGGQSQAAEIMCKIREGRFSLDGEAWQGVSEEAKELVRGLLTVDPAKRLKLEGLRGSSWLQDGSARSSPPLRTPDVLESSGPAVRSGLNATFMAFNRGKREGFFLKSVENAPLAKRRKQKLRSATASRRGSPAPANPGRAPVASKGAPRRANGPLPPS
# [3] = molecular target: Dual specificity mitogen-activated protein kinase kinase 2 (Homo sapiens) (UniProt P36507); assay: Inhibition of human MEK2 assessed as enzyme activity at 1 uM using ERK2 (K52R) as substrate preincubated for 20 mins followed by [gamma-33P]-ATP addition and measured after 120 mins by radiometric Hot-SpotSM Kinase assay relative to control
# Chain of Dual specificity mitogen-activated protein kinase kinase 2 (Homo sapiens) (P36507 whole entry): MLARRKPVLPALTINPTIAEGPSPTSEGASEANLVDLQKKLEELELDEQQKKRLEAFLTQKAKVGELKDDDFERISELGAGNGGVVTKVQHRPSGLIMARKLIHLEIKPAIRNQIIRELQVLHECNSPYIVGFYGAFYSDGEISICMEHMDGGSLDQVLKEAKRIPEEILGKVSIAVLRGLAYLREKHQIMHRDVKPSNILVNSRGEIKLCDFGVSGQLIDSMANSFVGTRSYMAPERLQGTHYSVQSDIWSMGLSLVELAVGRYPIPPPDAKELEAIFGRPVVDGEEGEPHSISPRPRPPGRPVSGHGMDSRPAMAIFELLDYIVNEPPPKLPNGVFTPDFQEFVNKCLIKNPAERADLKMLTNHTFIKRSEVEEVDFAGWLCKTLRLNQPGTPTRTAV
# [4] = molecular target: Non-receptor tyrosine-protein kinase TYK2 (Homo sapiens) (UniProt P29597); assay: Inhibition of human TYK2 assessed as enzyme activity at 1 uM using KKSRGDYMTMQIG as substrate preincubated for 20 mins followed by [gamma-33P]-ATP addition and measured after 120 mins by radiometric Hot-SpotSM Kinase assay relative to control
# Chain of Non-receptor tyrosine-protein kinase TYK2 (Homo sapiens) (P29597 whole entry): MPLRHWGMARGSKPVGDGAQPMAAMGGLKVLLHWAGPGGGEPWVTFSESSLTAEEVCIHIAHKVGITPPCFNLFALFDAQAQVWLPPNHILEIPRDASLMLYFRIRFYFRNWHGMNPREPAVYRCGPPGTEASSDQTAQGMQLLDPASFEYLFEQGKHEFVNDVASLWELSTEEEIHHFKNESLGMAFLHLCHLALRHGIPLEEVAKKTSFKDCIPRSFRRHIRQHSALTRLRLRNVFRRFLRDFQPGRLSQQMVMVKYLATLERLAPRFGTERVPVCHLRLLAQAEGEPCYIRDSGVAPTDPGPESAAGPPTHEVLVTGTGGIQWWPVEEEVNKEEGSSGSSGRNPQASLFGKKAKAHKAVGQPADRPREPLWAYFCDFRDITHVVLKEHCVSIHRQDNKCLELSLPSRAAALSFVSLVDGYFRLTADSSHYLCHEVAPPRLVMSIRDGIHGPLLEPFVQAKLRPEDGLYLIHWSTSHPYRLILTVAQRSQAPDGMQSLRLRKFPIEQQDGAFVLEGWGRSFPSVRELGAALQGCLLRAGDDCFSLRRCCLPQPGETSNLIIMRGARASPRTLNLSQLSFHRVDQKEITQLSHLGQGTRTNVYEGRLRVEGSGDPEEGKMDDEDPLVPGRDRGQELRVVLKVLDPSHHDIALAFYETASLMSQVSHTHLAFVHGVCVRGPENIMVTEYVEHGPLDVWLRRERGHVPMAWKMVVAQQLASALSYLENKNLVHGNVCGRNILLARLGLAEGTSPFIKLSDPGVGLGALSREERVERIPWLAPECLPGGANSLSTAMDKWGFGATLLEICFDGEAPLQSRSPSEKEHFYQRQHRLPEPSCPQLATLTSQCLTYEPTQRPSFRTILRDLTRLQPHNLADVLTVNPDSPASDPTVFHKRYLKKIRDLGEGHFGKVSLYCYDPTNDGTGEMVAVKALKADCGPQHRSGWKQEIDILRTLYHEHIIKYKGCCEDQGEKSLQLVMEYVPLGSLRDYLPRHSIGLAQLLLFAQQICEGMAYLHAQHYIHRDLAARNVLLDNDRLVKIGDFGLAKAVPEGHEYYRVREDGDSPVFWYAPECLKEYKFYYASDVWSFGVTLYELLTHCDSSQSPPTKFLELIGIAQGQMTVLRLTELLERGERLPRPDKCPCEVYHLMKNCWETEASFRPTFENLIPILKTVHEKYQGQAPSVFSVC
# [5] = molecular target: RAC-alpha serine/threonine-protein kinase (Homo sapiens) (UniProt P31749); assay: Inhibition of human AKT1 assessed as enzyme activity at 1 uM using KGSGSGRPRTSSFAEG as substrate preincubated for 20 mins followed by [gamma-33P]-ATP addition and measured after 120 mins by radiometric Hot-SpotSM Kinase assay relative to control
# [6] = molecular target: Calcium/calmodulin-dependent protein kinase kinase 2 (Homo sapiens) (UniProt Q96RR4); assay: Inhibition of human CAMKK2 assessed as enzyme activity at 1 uM using myelin basic protein as substrate preincubated for 20 mins followed by [gamma-33P]-ATP addition and measured after 120 mins by radiometric Hot-SpotSM Kinase assay relative to control
# Chain of Calcium/calmodulin-dependent protein kinase kinase 2 (Homo sapiens) (Q96RR4 2-588 limits assumed): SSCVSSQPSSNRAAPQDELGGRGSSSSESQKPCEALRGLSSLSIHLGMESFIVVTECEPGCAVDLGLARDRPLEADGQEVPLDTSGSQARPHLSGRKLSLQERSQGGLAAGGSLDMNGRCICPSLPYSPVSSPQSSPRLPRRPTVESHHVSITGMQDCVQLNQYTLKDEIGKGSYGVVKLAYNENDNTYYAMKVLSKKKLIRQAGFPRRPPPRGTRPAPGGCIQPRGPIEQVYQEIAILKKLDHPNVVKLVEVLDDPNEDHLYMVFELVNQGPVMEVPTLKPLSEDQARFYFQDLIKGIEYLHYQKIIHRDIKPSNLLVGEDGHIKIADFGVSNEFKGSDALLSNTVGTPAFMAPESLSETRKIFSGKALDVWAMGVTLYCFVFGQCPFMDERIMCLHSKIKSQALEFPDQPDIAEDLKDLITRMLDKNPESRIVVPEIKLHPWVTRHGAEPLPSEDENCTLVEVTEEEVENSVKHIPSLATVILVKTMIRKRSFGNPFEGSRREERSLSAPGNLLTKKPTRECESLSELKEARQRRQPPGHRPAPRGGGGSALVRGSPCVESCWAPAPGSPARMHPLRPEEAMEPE
# [7] = molecular target: Casein kinase I isoform gamma-1 (Homo sapiens) (UniProt Q9HCP0); assay: Inhibition of human CK1g1 assessed as enzyme activity at 1 uM using KRRRAL[pS]VASLPGL as substrate preincubated for 20 mins followed by [gamma-33P]-ATP addition and measured after 120 mins by radiometric Hot-SpotSM Kinase assay relative to control
# [8] = molecular target: Tyrosine-protein kinase Lyn (Homo sapiens) (UniProt P07948); assay: Inhibition of human LYN B assessed as enzyme activity at 1 uM using poly[Glu:Tyr] (4:1) as substrate preincubated for 20 mins followed by [gamma-33P]-ATP addition and measured after 120 mins by radiometric Hot-SpotSM Kinase assay relative to control
# [9] = molecular target: NT-3 growth factor receptor (Homo sapiens) (UniProt Q16288); assay: Inhibition of human TRKC assessed as enzyme activity at 1 uM using poly[Glu:Tyr] (4:1) as substrate preincubated for 20 mins followed by [gamma-33P]-ATP addition and measured after 120 mins by radiometric Hot-SpotSM Kinase assay relative to control
# Chain of NT-3 growth factor receptor (Homo sapiens) (Q16288 32-839 limits assumed): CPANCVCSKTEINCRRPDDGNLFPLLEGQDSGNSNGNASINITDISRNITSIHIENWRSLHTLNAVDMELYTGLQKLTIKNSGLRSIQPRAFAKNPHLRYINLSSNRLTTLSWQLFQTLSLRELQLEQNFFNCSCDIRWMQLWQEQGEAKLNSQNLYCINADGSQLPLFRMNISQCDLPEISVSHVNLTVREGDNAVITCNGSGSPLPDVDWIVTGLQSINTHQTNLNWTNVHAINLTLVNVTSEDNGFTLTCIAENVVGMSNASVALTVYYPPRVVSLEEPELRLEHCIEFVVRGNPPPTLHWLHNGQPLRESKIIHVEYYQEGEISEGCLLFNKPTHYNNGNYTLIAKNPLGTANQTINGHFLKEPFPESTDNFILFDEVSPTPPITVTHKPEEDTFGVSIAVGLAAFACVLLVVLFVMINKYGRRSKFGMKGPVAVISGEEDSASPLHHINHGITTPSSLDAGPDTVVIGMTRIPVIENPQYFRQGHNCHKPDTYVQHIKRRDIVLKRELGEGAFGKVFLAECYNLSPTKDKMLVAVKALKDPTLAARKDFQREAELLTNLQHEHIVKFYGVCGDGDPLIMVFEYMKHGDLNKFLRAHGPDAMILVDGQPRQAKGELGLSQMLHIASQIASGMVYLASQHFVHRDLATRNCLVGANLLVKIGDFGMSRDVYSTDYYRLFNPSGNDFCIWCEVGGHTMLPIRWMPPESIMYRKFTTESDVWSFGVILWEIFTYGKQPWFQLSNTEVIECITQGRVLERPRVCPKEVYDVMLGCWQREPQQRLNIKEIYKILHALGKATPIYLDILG
# [10] = molecular target: T1, Serine/threonine-protein kinase DCLK2 (Homo sapiens) (UniProt Q8N568); assay: Inhibition of human DCAMKL2 assessed as enzyme activity at 1 uM using KKLNRTLSFAEPG as substrate preincubated for 20 mins followed by [gamma-33P]-ATP addition and measured after 120 mins by radiometric Hot-SpotSM Kinase assay relative to control
# T1 sequence (whole entry): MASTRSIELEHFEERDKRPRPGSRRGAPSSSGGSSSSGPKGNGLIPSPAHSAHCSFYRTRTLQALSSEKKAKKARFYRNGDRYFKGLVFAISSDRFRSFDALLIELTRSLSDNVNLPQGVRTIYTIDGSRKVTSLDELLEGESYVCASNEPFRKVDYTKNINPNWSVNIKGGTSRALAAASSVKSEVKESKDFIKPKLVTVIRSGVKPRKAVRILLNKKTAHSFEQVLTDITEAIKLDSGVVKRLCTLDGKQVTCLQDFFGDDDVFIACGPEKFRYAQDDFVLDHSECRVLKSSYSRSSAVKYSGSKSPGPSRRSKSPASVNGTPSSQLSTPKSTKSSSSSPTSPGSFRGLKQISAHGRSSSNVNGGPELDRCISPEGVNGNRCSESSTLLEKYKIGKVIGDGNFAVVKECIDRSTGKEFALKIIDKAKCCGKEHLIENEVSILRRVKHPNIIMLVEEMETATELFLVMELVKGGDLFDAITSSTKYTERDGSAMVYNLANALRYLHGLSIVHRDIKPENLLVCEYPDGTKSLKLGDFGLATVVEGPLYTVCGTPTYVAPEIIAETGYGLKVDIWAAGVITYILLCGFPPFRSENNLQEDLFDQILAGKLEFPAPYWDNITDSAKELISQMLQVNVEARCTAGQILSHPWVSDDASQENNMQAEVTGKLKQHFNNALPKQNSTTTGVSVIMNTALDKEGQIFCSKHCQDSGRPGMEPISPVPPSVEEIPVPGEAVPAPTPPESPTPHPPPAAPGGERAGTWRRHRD
# [11] = molecular target: Proto-oncogene tyrosine-protein kinase receptor Ret (Homo sapiens) (UniProt P07949); assay: Inhibition of human RET assessed as enzyme activity at 1 uM using RRRRRRRRRRRVYSTDYYRLFNPS as substrate preincubated for 20 mins followed by [gamma-33P]-ATP addition and measured after 120 mins by radiometric Hot-SpotSM Kinase assay relative to control
# Chain of Proto-oncogene tyrosine-protein kinase receptor Ret (Homo sapiens) (P07949 whole entry): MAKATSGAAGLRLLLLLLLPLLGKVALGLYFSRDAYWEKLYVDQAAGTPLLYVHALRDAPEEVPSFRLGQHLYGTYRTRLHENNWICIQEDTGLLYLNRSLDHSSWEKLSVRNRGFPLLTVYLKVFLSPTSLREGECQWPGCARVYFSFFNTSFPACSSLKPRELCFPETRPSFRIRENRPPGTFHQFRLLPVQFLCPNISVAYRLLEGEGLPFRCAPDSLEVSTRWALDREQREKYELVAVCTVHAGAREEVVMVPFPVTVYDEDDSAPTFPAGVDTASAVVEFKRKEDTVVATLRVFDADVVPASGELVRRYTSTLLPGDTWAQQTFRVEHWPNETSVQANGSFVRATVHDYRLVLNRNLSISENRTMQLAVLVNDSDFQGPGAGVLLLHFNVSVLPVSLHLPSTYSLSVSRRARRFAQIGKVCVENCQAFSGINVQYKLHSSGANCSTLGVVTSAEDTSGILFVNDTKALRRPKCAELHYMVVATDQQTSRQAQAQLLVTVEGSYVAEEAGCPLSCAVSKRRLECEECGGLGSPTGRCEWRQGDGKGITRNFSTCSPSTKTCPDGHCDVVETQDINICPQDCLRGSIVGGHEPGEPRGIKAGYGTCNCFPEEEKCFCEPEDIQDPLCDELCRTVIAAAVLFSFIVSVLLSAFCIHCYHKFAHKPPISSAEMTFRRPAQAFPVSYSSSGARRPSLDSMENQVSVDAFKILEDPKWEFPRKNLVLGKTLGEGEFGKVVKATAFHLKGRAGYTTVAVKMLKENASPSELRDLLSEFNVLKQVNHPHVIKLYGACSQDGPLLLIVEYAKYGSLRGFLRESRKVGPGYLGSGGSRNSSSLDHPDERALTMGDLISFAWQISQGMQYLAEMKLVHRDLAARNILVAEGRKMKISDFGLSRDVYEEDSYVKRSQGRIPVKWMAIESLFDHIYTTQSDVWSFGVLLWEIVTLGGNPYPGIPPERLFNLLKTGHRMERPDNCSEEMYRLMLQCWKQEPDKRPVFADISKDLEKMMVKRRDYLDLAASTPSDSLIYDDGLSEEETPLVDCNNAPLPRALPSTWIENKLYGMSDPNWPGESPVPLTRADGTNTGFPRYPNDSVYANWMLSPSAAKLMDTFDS
Structure (SMILES),Activity [1] [%],Activity [2] [%],Activity [3] [%],Activity [4] [%],Activity [5] [%],Activity [6] [%],Activity [7] [%],Activity [8] [%],Activity [9] [%],Activity [10] [%],Activity [11] [%]
CC[C@H](Nc1ncnc2[nH]cnc12)c1nc2cccc(F)c2c(=O)n1-c1ccccc1,96.5,98.1,91.5,96.6,99,106,105,97.8,89.6,94.7,98.6
C[C@H](Nc1ncnc2nc[nH]c12)c1cc2cccc(Cl)c2c(=O)n1-c1ccccc1,88.7,98.8,90,96.3,99.6,96.6,98.3,102,91,94.1,97.7
CC(C)Oc1ccc(-c2nn([C@@H](C)c3oc4ccc(F)cc4c(=O)c3-c3cccc(F)c3)c3ncnc(N)c23)cc1F [UMBRALISIB],92.3,94.2,90.4,102,93.3,98.5,97.6,104,88.7,94.7,99.9

# Reference: ChEMBL document CHEMBL5715954, “Silencing c-Myc translation as a therapeutic strategy through targeting PI3Kδ and CK1ε in hematological malignancies” (Blood, 2017)
